Assay results published in patent US11590158B2, “Pharmaceutical compositions of lipoic acid choline ester salts and methods of treatment using same” (Novartis AG, priority 2020, dated 2023).
“Also recorded” adds a separate entry of the source. Structures can show the parent of a compound that is named as a salt. Where two headings read alike, the source gives them in different places.

Assays:
[1] = Stability in organic solutions or suspensions; assay type: physicochemical; details: 40° C. for 1 week
[2] = Photostability; assay type: physicochemical
[3] = Hygroscopicity (exposure to RH, DVS); assay type: physicochemical; details: for Hygroscopicity / Hygroscopicity, water uptake: DVS; for Hygroscopicity: >70% RH; for Hygroscopicity, water uptake: until 70% RH
[4] = Hygroscopicity (exposure to RH, DVS); assay type: physicochemical; details: for Hygroscopicity upon exposure: 58% RH for one day; for Hygroscopicity: solid salt, ambient conditions
From the text: It is deliquescent upon exposure to 58% RH for one day. In DVS measurement, LACE chloride absorbs 18.6% moisture from 0% RH to 50% RH. The DVS isotherm is irreversible. It is amorphous at ambient but crystalline under 0% RH by Cryo-XRPD.

[5] = Solid state stability
[6] = 1 week
Experimental: (§1) LACE salts were dissolved in each of the following excipients: 0.01% benzalkonium chloride, 20 mM acetate buffer, 20 mM citrate buffer, 1% Na-carboxymethyl cellulose, 1% hydroxypropylmethyl cellulose and 0.01% Na-ethylene diamine tetraacetic acid.

[7] = Excipient compatibility
Experimental: as §1

[8] = Stability in aqueous solutions or suspensions; assay type: physicochemical
From the text: At pH 4.7 buffer solution about 4% degradation is observed.

[9] = test system: rabbit eye; assay: Acute rabbit ocular tolerability study; assay type: in vivo; details: rabbit left eye dosed 6 times, one drop about 30 microliter, about 1 hour apart
Experimental: A number of excipients were explored to determine which excipients would reduce the formation of associative species. Acute rabbit ocular tolerability studies were performed to test the ocular tolerability of LACE tosylate with various excipients. The study design involved three male rabbits per arm. The rabbits' left eye was dosed 6 times with one drop each time, about 1 hour apart, administering about 30 microliter per drop. The right eye was not dosed and served as a control.

[10] = Equilibration of LACE chloride in solvents (solubility test); assay type: physicochemical; details: 100 mg in 1 mL, 25° C. for 7 days
From the text: The mixture was equilibrated for 7 days, with visual observations at days 1, 2, and 7. If a slurry resulted, it was filtered and clear solutions were either cooled or evaporated.

[11] = test system: Staphylococcus aureus, Pseudomonas aeruginosa, Escherichia coli, Candida albicans, and Aspergillus brasiliensis; assay: Preservative efficacy test, overall outcome against USP criteria; assay type: cell-based; details: formulations with cyclodextrin
Experimental: The testing was carried out using the following procedure: Five different challenge organisms were evaluated (Staphylococcus aureus, Pseudomonas aeruginosa, Escherichia coli, Candida albicans, and Aspergillus brasiliensis) were evaluated for each test formulation, and inoculated to a concentration of 10^6 colony forming units per ml (CFU/ml). The microbial suspension was incubated and sampled at 7, 14, 21, and 28 days. At the time of sampling, a sample was diluted 10-fold into tryptase soy broth medium, and 100 μl plated in growth agar plates to count survivors. The survivor count was used to determine log reduction. The preservative efficacy test criteria for multidose pharmaceutical compositions under US Pharmacopoeia standards are as follows. [table]

[12] = other solvents (EtOAC, acetone, IPA and THF)
[13] = 5% solutions in aqueous excipients (0.01% BAC, 20 mM acetate, 20 mM citrate, 1% Na-CMC, 1% HPMC, 0.01% Na-EDTA), 40° C. for 2 weeks
[14] = same excipients, 40° C. for 2 weeks
[15] = same excipients, 40° C./75% RH for 2 weeks
[16] = pH 4.7 buffer solution, 40° C. for 1 week

## C[N+](C)(C)CCOC(=O)CCCCC1CCSS1 (stereo not shown) [LACE-OTs, lipoic acid choline ester tosylate]
[1]; methanol and ethanol
  degradation: complete degradation
[1]; [12]
  degradation: severe degradation
[2]; amber vial
  photostability: stable
  photostability, physical form: remains the same
[2]; clear vial
  photostability, degradation: severe degradation and color change
  photostability, physical form: some amorphous content
[3]; up to 60% RH
  moisture absorbed in DVS: less than 2%
[4]
  Hygroscopicity upon exposure: non-hygroscopic
[5]; 40° C. 75% RH for 1 week
  physical form: become sticky
[5]; 40° C. for 1 week
  solid state stability / physical form: stable
[5]
  behaviour on handling / exposure at ambient conditions: without any degradation
[6]
  degradation: < 2%
[6]; 5 %
  degradation: 1-3%

## lipoic acid choline ester besylate [LACE-OBs]
[5]
  behaviour on handling / exposure at ambient conditions: without any degradation

## C[N+](C)(C)CCOC(=O)CCCCC1CCSS1.Cc1ccc(S(=O)(=O)[O-])cc1 (stereo not shown) [Form B, lipoic acid choline ester tosylate]
[3]
  Hygroscopicity: deliquescent >70% RH
  Hygroscopicity, water uptake: 0.55% water uptake until

## C[N+](C)(C)CCOC(=O)CCCCC1CCSS1.[I-] (stereo not shown) [LACE-I, lipoic acid choline ester iodide]
[7]; [13]
  degradation: about 5%
[7]; [14]
  degradation: higher degradation
[7]; [15]
  degradation: high-severe degradation
[8]; [16]
  degradation: about 4%
[1]; methanol and ethanol
  degradation: complete degradation
[1]; [12]
  degradation: severe degradation
[2]; amber vial
  photostability: stable
  photostability, physical form: remains the same
[2]; clear vial
  photostability, degradation: severe degradation and color change
  photostability, physical form: remains unchanged
[4]
  Hygroscopicity upon exposure: non-hygroscopic
[4]; DVS
  Hygroscopicity by DVS: non-hygroscopic
[5]; 40° C. 75% RH for 1 week
  physical form: form remains the same
[5]; 40° C. for 1 week
  solid state stability / physical form: stable
[5]
  behaviour on handling / exposure at ambient conditions: changes color; also recorded: discoloration and possibly slow degradation

## CC(O)CO (stereo not shown) [Propylene Glycol]
[9]
  Tolerated: No

## C[N+](C)(C)CCOC(=O)CCCC[C@@H]1CCSS1.[Cl-] [LACE-Cl, lipoic acid choline ester chloride]
[7]; [13]
  degradation: about 5%
[7]; in Na-CMC, alanine and histidine, 25° C. for 1 week
  degradation: 2-3%
[7]; [14]
  degradation: higher degradation
[7]; [15]
  degradation: high-severe degradation
[7]; with HPMC, 25° C. for 1 week
  degradation: ~8%
[7]; with HPβCD, 25° C. for 1 week
  degradation: 3.35%
[10]; 2-Me-THF
  Comments (equilibration in solvent): sticky solid
[10]; 2 Methyl 2 butanone
  Comments (equilibration in solvent): Clear solution after 7 days
[10]; ACN
  Comments (equilibration in solvent): Clear solution after 7 days
[10]; Acetic acid
  Comments (equilibration in solvent): almost dissolved
[10]; Acetone
  Comments (equilibration in solvent): initial suspension, with particles stuck on wall
[10]; Anisole
  Comments (equilibration in solvent): sticky solid
[10]; Benzyl alcohol
  Comments (equilibration in solvent): Clear solution after 7 days
[10]; Chloroform
  Comments (equilibration in solvent): clear solution that yielded an oil after
[10]; Cumene
  Comments (equilibration in solvent): undissolved solid after 7 days
[10]; Cyclohexane
  Comments (equilibration in solvent): undissolved solid after 7 days
[10]; DCM
  Comments (equilibration in solvent): Clear solution after 7 days
[10]; Diethyl ether
  Comments (equilibration in solvent): undissolved solid after 7 days
[10]; Dioxane
  Comments (equilibration in solvent): initial suspension, with particles stuck on wall
[10]; EtOAc
  Comments (equilibration in solvent): suspension
[10]; EtOH
  Comments (equilibration in solvent): Clear solution after 7 days
[10]; Ethyl formate
  Comments (equilibration in solvent): suspension
[10]; IPAc
  Comments (equilibration in solvent): undissolved solid after 7 days
[10]; MEK
  Comments (equilibration in solvent): initial suspension, with particles stuck on wall
[10]; MTBE
  Comments (equilibration in solvent): initial suspension, with particles stuck on wall
[10]; MeOH
  Comments (equilibration in solvent): Clear solution after 7 days
[10]; Nitromethane
  Comments (equilibration in solvent): Clear solution after 7 days
[10]; Petroleum ether
  Comments (equilibration in solvent): undissolved solid after 7 days
[10]; Propylene glycol
  Comments (equilibration in solvent): Clear solution after 7 days
[10]; Pyridine
  Comments (equilibration in solvent): almost dissolved
[10]; THF
  Comments (equilibration in solvent): initial suspension turning sticky
[10]; Toluene
  Comments (equilibration in solvent): sticky solid
[10]; Water
  Comments (equilibration in solvent): Clear solution after 7 days
[10]; Xylene
  Comments (equilibration in solvent): undissolved solid after 7 days
[8]; [16]
  degradation: about 4%
[1]; methanol and ethanol
  degradation: complete degradation
[1]; [12]
  degradation: severe degradation
[2]; amber vial
  photostability, degradation: ~5%
  photostability, physical form: becomes sticky
[2]; clear vial
  photostability, degradation: severe degradation and color change
  photostability, physical form: becomes sticky
[4]
  Hygroscopicity upon exposure: deliquescent
  Hygroscopicity: highly hygroscopic
[4]; from 0% RH to 50% RH
  moisture absorbed in DVS: 18.6%
[5]; 40° C. 75% RH for 1 week
  degradation: approximately 7%
  physical form: becomes sticky mass
[5]; 40° C. for 1 week
  degradation: approximately 7%
  solid state stability / physical form: becomes sticky mass
[5]
  behaviour on handling / exposure at ambient conditions: not suitable for handling under normal conditions

## C[N+](C)(C)CCOC(=O)CCCCC1CCSS1 (stereo not shown) [LACE-OBs, lipoic acid choline ester besylate]
[8]; 1 week
  degradation: 10-99%
[8]; 1 week, pH 4.7
  degradation: about 4%
[1]; methanol and ethanol
  degradation: complete degradation
[1]; [12]
  degradation: severe degradation
[2]; amber vial
  photostability: stable
  photostability, physical form: remains the same
[2]; clear vial
  photostability, degradation: severe degradation and color change
  photostability, physical form: decrease in crystallinity
[3]; 58% RH up to 6 hours
  Hygroscopicity upon exposure: non hygroscopic
[3]; DVS from 50% RH to 90% RH
  Hygroscopicity by DVS: deliquescent
[4]
  Hygroscopicity upon exposure: deliquescent
  Hygroscopicity: hygroscopic
[5]; 40° C. 75% RH for 1 week
  physical form: become sticky
[5]; 40° C. for 1 week
  solid state stability / physical form: stable
[6]
  degradation: < 2%

## N=C(N)NC(=N)N [Biguanide]
[11]
  efficacy as a preservative in LACE tosylate formulations: not found to be efficacious

## C[N+](C)(C)CCOC(=O)CCCCC1CCSS1.Cc1ccc(S(=O)(=O)[O-])cc1 (stereo not shown) [Form A, lipoic acid choline ester tosylate]
[3]
  Hygroscopicity: deliquescent >70% RH
  Hygroscopicity, water uptake: 0.64% water uptake until

## C[N+](C)(C)CCOC(=O)CCCCC1CCSS1.[Br-] (stereo not shown) [LACE bromide]
[4]
  Hygroscopicity: hygroscopic
